Starred links: 1 amine or outer side, 2 acyl side, 3 side chain; linkers in the order of their positions; H or OH if unused. Positions of bridges follow the written chain, without caps; N, C: chain ends. Non-standard residues stand in square brackets, D forms with d. Residues, ends and D or L forms follow the SMILES beside them. Chains are numbered I, II in the order given. *: point of attachment. Actinocin(9to1) = Cc1c2oc3c(C)ccc(C(=O)[*:1])c3nc-2c(C(=O)[*:2])c(N)c1=O; NMeV = CN[CH](C(=O)O)C(C)C; Cbz = O=C(OCc1ccccc1)*; Sar = CNCC(=O)O
Assay: method code SF, from Hansch, C. & Leo, A. (1987). Log P database [Dataset]. Pomona College Medicinal Chemistry Project.

Compound | logP | other results
CC(=O)Nc1ccc(C(F)(F)F)cc1 | 2.52 | –
c1ccc(-c2ccc3ccccc3n2)cc1 | 3.9 | –
O[C@@H]1CCCC[C@H]1O | 0.08 | –
FC(Cl)Cl | 1.55 | –
CSc1ccc2c(c1)C(c1ccccc1)=NCC(=O)N2 | – | logD (pH 7.4): 2.92
O=C(CCl)Nc1ccc(Cl)c(Cl)c1 | 3.29 | –
NC(=O)CBr | -0.52 | –
COCC1=Nc2cc(Cl)ccc2S(=O)(=O)N1 | 1.12 | –
C(=N\N1CCCCC1)/c1ccccc1 | 3.04 | –
CCOc1cccc(NC(C)=O)c1 | – | logD (pH 7.0): 1.82
CC1=Nc2ccc(Br)cc2S(=O)(=O)N1 | 1.37 | –
NC(=O)NN=CCCc1ccccc1 | 2.32 | –
O=C(/C=C/C(=O)c1ccccc1)c1ccccc1 | 3.16 | –
FC(F)(F)C(F)(F)c1ccccc1 | 3.36 | –
O=S1(=O)NC(C2CCCCC2)=Nc2ccccc21 | 2.2 | –
CCC(C)NC(=O)/C=C/c1ccccc1 (stereo not given) | 2.85 | –
COc1cn[nH]c1 | 0.37 | –
CCC(C)=O | 0.5 | –
O=C(CCc1ccccc1)Nc1ccc(Cl)c(Cl)c1 | 4.85 | –
O=NN(Cc1ccccc1)c1ccccc1 | 3.38 | –
NNc1ccc(Br)cc1 | – | logD (pH 13.0): 1.39
CCn1c(C)c(N(C)C)c(=O)n(-c2ccccc2)c1=O | – | logD (pH 7.4): 1.8
NC(=O)/C=C/c1ccc2c(c1)OCO2 | 1.4 | –
CC(=O)c1cccc(OC(=O)N(C)C)c1 | 1.18 | –
NNc1ccccc1 | – | logD (pH 8.9): 1.25
ON=C(c1ccccc1)c1ccccc1 | 3.2 | –

Compound | logP | other results
CC(=O)Nc1ccc(S(C)(=O)=O)cc1 | 0.58 | –
CCC(=O)OCCOc1ccc(C=NO)cc1OC | 1.52 | –
COc1ccc(C(N)=O)cc1/N=N/N(C)C | 0.44 | –
CC12CCC(=O)C=C1CCC1C2CCC2(C)C1CCC21CCC(=O)O1 (stereo not given) | – | logD (pH 7.4): 2.75
COc1ccc(OC(=O)CNC(=O)c2ccccc2)cc1 | 2.28 | –
CCCNP(=O)(OC)Oc1cc(Cl)c(Cl)cc1Cl (stereo not given) | 3.7 | –
OC(c1ccccc1)c1ccccn1 (stereo not given) | – | logD (pH 8.0): 1.52
NC(=O)CCl | -0.53 | –
CC1(C)N=C(N)N=C(N)N1c1ccc(N)cc1 | – | logD (pH 13.0): -0.59
CC(C)CN(CC(C)C)C(=O)C=Cc1ccc2c(c1)OCO2 | 4.37 | –
c1cncc(CN2CCCC2)c1 | – | logD (pH 11.0): 1.1
CSc1ccc(NC(C)=O)cc1 | 2.03 | –
CCOP(=O)(OCC)Oc1ccc(SC)c(Cl)c1 | 3.48 | –
CC(C)C(NC(=O)OCc1ccccc1)C(=O)NC(Cc1ccc(O)cc1)C(=O)O (stereo not drawn) (Cbz-Val-Tyr-OH; configuration not given here) | 2.43 | –
CO/N=C(/C(=O)N[C@@H]1C(=O)N2C(C(=O)OC(C)OC(C)=O)=C(COC(N)=O)CS[C@@H]12)c1ccco1 (stereo not given in full) | – | logD (pH 7.2): 0.89
O=S(=O)(NO)c1ccccc1 | 0.48 | –
CCS(=O)(=O)c1ccc(S(N)(=O)=O)c2ccccc12 | 1.24 | –
CNC(=O)NCCSCc1nc[nH]c1C | -0.06 | –
CC(=O)NO | -1.59 | –
CC(=O)c1ccccc1C(=O)O | – | logD (pH 1.0): 0.81
N=C(N)NS(=O)(=O)c1ccc(N)cc1 | -1.22 | –
CC(=O)c1ccc2ncccc2c1 | 1.58 | –
Cn1ccccc1=O | -0.23 | –
Cc1cccc(/N=N/N(C)C)c1 | 2.85 | –
N#CCc1ccsc1 | 1.26 | –
N#CC(Cl)(Cl)Cl | 2.09 | –

Compound | logP | other results
O=c1[nH]c(=O)n(C2CCCO2)cc1F (stereo not given) | – | logD (pH 7.4): -0.27
CC(C)(C)CC1=Nc2ccc(Cl)cc2S(=O)(=O)N1 | 2.71 | –
CCOC(=O)CON=Cc1ccc(OCCOC(=O)c2cc(OC)c(OC)c(OC)c2)c(OC)c1 | 3.26 | –
O=c1cncc[nH]1 | -1.49 | –
CCOC(=O)CON=Cc1ccc(OCC(=O)OCC)c(OC)c1 | 1.87 | –
Nc1nc(O)c2nc[nH]c2n1 | -0.91 | –
O=C1Cc2ccccc2CCc2ccccc21 | 2.58 | –
CCN(CC)CCc1cccnc1 | – | logD (pH 11.0): 1.23
CC(=O)Nc1cc2c(cc1Cl)S(=O)(=O)NC(C)=N2 | 0.53 | –
c1ccc2c(c1)Cc1ccccc1C2 | 4.25 | –
CS(=O)(=O)OCCCCOS(C)(=O)=O | -0.52 | –
COP(=S)(NC(C)C)Oc1ccc(Cl)cc1Cl (stereo not given) | 4.3 | –
COC(OC)(OC)c1ccccc1 | – | logD (pH 13.0): 2.27
OCCC(F)(F)F | 0.39 | –
CC(=O)C(=Cc1cccc(Cl)c1)C(C)=O | 2.26 | –
c1cc2n(n1)CCN2 | – | logD (pH 7.4): -0.25
Nc1ccc(C(F)(F)F)cc1 | – | logD (pH 7.4): 2.39
CNP(=O)(OC)Oc1cccc(C(C)(C)C)c1 (stereo not given) | 2.65 | –
CCCOP(=O)(OCCC)OCCC | 1.87 | –
OC[C@H]1O[C@@H](n2cnc3c(=S)nc[nH]c32)[C@H](O)[C@@H]1O | – | logD (pH 7.4): -0.6
O=C(c1ccncc1)c1ccc([N+](=O)[O-])cc1 | 1.76 | –
CC(=O)Oc1ccc([N+](=O)[O-])cc1 | 1.5 | –
CC1(C)N=C(N)N=C(N)N1c1ccc(I)cc1 | – | logD (pH 13.0): 1.39
Cc1c(C2(c3cc(C(C)C)c(O)c(Br)c3C)OS(=O)(=O)c3ccccc32)cc(C(C)C)c(O)c1Br | 2.78 | –
CC(=O)c1ccc(N(C)C)cc1 | – | logD (pH 7.0): 2.1
CN(Cc1ccc([N+](=O)[O-])cc1)/N=N/c1ccc(C(=O)O)cc1 | 4.03 | –

Compound | logP | other results
OCC(F)(F)F | 0.32 | –
CCOC(=O)C(=Cc1ccccc1F)C(=O)OCC | 3.04 | –
COC(=O)c1ccc(C(=O)OC)cc1 | – | logD (pH 7.0): 2.25
O=C(NCC(O)c1ccc([N+](=O)[O-])cc1)C(F)(F)F (stereo not given) | 1.46 | –
Cc1cc(CSc2ccccc2C(C)C)c(O)c(C(=O)O)c1 | 4.36 | –
S=P(N1CC1)(N1CC1)N1CC1 | 0.53 | –
COC(=O)c1cccc(NC(C)=O)c1 | 1.46 | –
c1ccc(-c2nc3ccccc3s2)cc1 | 4.26 | –
C[C@@H](O)c1ccccc1 | 1.42 | –
CC1=Nc2cccc(Cl)c2S(=O)(=O)N1 | 0.62 | –
CNC(=O)COc1ccccc1 | 1.02 | –
Nc1ccccc1I | 2.32 | –
CCOC(=O)CON=Cc1ccc(OCCOC(=O)c2ccccc2OC)c(OC)c1 | 3.27 | –
CNC(=S)NCCSCc1nc[nH]c1C | – | logD (pH 10.8): 0.59
COc1ccccc1OCC(=O)O | – | logD (pH 1.0): 0.98
CN[C@@H](C)Cc1ccccc1 | – | logD (pH 13.0): 2.07
CCOc1ccccc1NC(C)=O | 1.49 | –
CCCCC1OC(=O)c2cc(O)ccc21 (stereo not given) | 3.12 | –
Clc1ccc2ncccc2c1 | 2.73 | –
CN(C)/N=N/c1cn([C@@H]2O[C@H](CO)[C@@H](O)[C@H]2O)c(=O)[nH]c1=O | -1.82 | –
CC(C)CCO[N+](=O)[O-] | 2.84 | –
COc1ccc2ncccc2c1 | 2.2 | –
COc1cc(O)cc(OC)c1 | 1.64 | –
O=C(Oc1ccccc1)Oc1ccccc1 | 3.28 | –
O=S1(=O)NC(C2=CCCC2)=Nc2ccccc21 | 1.69 | –
CN(C)C(=O)Cc1ccco1 | 0.01 | –

Compound | logP | other results
CN(C)CCCc1ccco1 | 2.08 | –
O=c1cc[nH]c2ccccc12 | 0.58 | –
O=c1[nH]cc(CO)c(=O)[nH]1 | -1.94 | –
CCC(C)C1=Nc2ccc(Cl)cc2S(=O)(=O)N1 (stereo not given) | 2.47 | –
CCN(CC)/N=N/c1nc[nH]c1C(N)=O | – | logD (pH 4.6): 0.78
CC(=O)c1ccc(N2C(N)=NC(N)=NC2(C)C)cc1 | – | logD (pH 13.0): -0.04
COc1ccccc1C=C(C(C)=O)C(C)=O | 1.73 | –
O=C(COc1ccccc1)N1CCCCC1 | 1.81 | –
O=C1c2ccccc2C(=O)C1(O)O | 0.67 | –
NC(=O)c1ncccc1O | – | logD (pH 7.4): 0.65
CCCCOc1cccc(N2C(N)=NC(N)=NC2(C)C)c1 | – | logD (pH 13.0): 2.03
CN(C)C#N | -0.15 | –
O=C(Nc1ccc(Cl)c(Cl)c1)C1CC1 | 3.83 | –
NC(=S)c1ccccc1 | 1.49 | –
CNc1ccc(S(=O)(=O)N(C)C)cc1 | 1.43 | –
CNP(=O)(OC)Oc1ccc(Cl)cc1 (stereo not given) | 1.85 | –
Cc1c2oc3c(C)ccc(C(=O)NC4C(=O)NC(C(C)C)C(=O)N5CCCC5C(=O)N(C)CC(=O)N(C)C(C(C)C)C(=O)OC4C)c3nc-2c(C(=O)NC2C(=O)NC(C(C)C)C(=O)N3CCCC3C(=O)N(C)CC(=O)N(C)C(C(C)C)C(=O)OC2C)c(N)c1=O (stereo not given) (I: TVP[Sar][NMeV] / II: TVP[Sar][NMeV]; ester I:1-I:C, II:1-II:C; linker I:N-II:N via Actinocin(9to1); configuration not given here) | – | logD (pH 7.4): 3.21
c1cnc2[nH]ccc2c1 | 1.82 | –
CC1(C)N=C(N)N=C(N)N1c1cccc([N+](=O)[O-])c1 | – | logD (pH 12.0): 0.06
COc1ccc2[nH]c(CC(O)c3nc4cc(OC)ccc4[nH]3)nc2c1 (stereo not given) | 0.76 | –
Cc1ccc(Nc2ccc(O)c3c2C(=O)c2ccccc2C3=O)cc1 | 3.12 | –
CC(=O)N[C@@H]1CC(=O)N(c2ccccc2)C1=O | -0.33 | –
NC(=O)c1cccnc1N | – | logD (pH 7.0): 0.88
O=C(O)COc1ccc(Cl)c(Cl)c1 | 2.81 | –
OC(c1ccccc1)(c1ccccc1)c1ccccc1 | 3.68 | –
FC(F)F | 0.64 | –

Compound | logP | other results
CCCCCCOC(=O)c1ccc(O)cc1 | 4.35 | –
CCOC(=O)C(=O)OCC | 0.56 | –
CCCCOc1ccc(C(N)=O)cc1 | 2.48 | –
N#CN=[N+]([O-])c1ccc(Cl)cc1 | 2.33 | –
CSSC | 1.77 | –
c1ccc2c(c1)OCCO2 | 2.01 | –
COc1cccc(C)c1 | 2.66 | –
CCOP(=S)(OCC)Oc1ncn(-c2ccccc2)n1 | 3.55 | –
Nc1ncc2ncn(COCCO)c2n1 | -0.96 | –
CNP(=O)(OC)Oc1ccc(SC)cc1 (stereo not given) | 1.81 | –
COc1ccccc1N | 1.18 | –
Cc1n[nH]cc1[N+](=O)[O-] | 0.19 | –
O=[N+]([O-])c1ccc(OCCn2ccnc2)cc1 | 1.69 | –
O=Cc1ccsc1 | 1.01 | –
Cc1cccc(OC(=O)N(C)C)c1 | 2.05 | –
N#Cc1c(N)sc2ccccc12 | 2.17 | –
CCOC(=O)C(=Cc1cccc(OC)c1)C(C)=O | 2.34 | –
COC(=O)CNC(=O)c1ccc([N+](=O)[O-])cc1 | 0.98 | –
CC(CN(C)C)CN1c2ccccc2Sc2ccccc21 (stereo not given) | 4.71 | –
C=COCC | 1.04 | –
CN(C)C(=O)Oc1ccccc1[N+](=O)[O-] | 1.35 | –
CC(=O)c1ccc[nH]1 | 0.93 | –
O=P(c1ccccc1)(c1ccccc1)c1ccccc1 | 2.85 | –
CC(=O)Oc1ccc(C(N)=O)cc1 | – | logD (pH 7.0): 0.27
S=c1cc[nH]cc1 | 0.2 | –

— the SangsterLogP compilation
